Laboratory results published in US10030047B2 (Hoffmann-La Roche Inc., priority 2015, dated 2018).
Values after ≈ are worked out from the molar mass of the structure shown.

Tested on: A. baumannii strain ATCC19606
Assay: Minimum inhibitory concentration (MIC) determination, microbroth dilution (CLSI)
Format: cell-based
Conditions: Acinetobacter baumannii; A. baumannii ATCC19606; CAMHB; read after 20 hours; >=80% growth inhibition; read-out: ATCC19606 MIC
How it was run: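 CLSI broth microdilution in cation-adjusted Mueller Hinton broth with twofold compound dilutions and ~5×10^5 CFU/ml inoculum, incubated at 35±2 °C. MIC read after 20 h as lowest concentration inhibiting ≥80% of growth, by eye and OD 600 nm.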

Row | MIC [mg/L] | SMILES
1 | 4 (≈ 5.71 µM) | COc1ccc2c(c1)CNC(=O)[C@H](Cc1c[nH]c3ccccc13)N(C)C(=O)[C@H](CCCCN)NC(=O)[C@H](CCCN)NCc1cccnc1S2 [Example 61, (11S,14S,17S)-14-(4-Amino-butyl)-11-(3-amino-propyl)-17-(1H-indol-3-ylmethyl)-23-methoxy-16-methyl-2-thia-4,10,13,16,19-pentaaza-tricyclo[19.4.0.0*3,8*]pentacosa-1(25),3,5,7,21,23-hexaene-12,15,18-trione]
2 | 0.12 (≈ 0.155 µM) | CN1C(=O)[C@H](CCCCN)NC(=O)[C@H](CCCN)NCc2cccnc2Sc2c(Cl)cc(C(F)(F)F)cc2CNC(=O)[C@@H]1Cc1c[nH]c2ccccc12 [Example 62, (11S,14S,17S)-14-(4-Amino-butyl)-11-(3-amino-propyl)-25-chloro-17-(1H-indol-3-ylmethyl)-16-methyl-23-trifluoromethyl-2-thia-4,10,13,16,19-pentaaza-tricyclo[19.4.0.0*3,8*]pentacosa-1(25),3,5,7,21,23-hexaene-12,15,18-trione]
3 | 32 (≈ 47.7 µM) | CN1C(=O)[C@H](CCCCN)NC(=O)[C@H](CCCN)NCc2ccccc2Sc2cnccc2CNC(=O)[C@@H]1Cc1c[nH]c2ccccc12 [Example 63, (12S,15S,18S)-15-(4-Amino-butyl)-18-(3-amino-propyl)-12-(1H-indol-3-ylmethyl)-13-methyl-2-thia-5,10,13,16,19-pentaaza-tricyclo[19.4.0.0*3,8*]pentacosa-1(25),3,5,7,21,23-hexaene-11,14,17-trione]
4 | 32 (≈ 44.3 µM) | CN1C(=O)[C@H](CCCCN)NC(=O)[C@H](CCCN)NCc2cc(F)ccc2Sc2c(Cl)cccc2CNC(=O)[C@@H]1Cc1c[nH]c2ccccc12 [Example 64, (12S,15S,18S)-15-(4-Amino-butyl)-18-(3-amino-propyl)-4-chloro-23-fluoro-12-(1H-indol-3-ylmethyl)-13-methyl-2-thia-10,13,16,19-tetraaza-tricyclo[19.4.0.0*3,8*]pentacosa-1(25),3,5,7,21,23-hexaene-11,14,17-trione]
5 | 32 (≈ 45.6 µM) | Cc1cccc2c1Sc1ccc(F)cc1CN[C@@H](CCCN)C(=O)N[C@@H](CCCCN)C(=O)N(C)[C@@H](Cc1c[nH]c3ccccc13)C(=O)NC2 [Example 65, (12S,15S,18S)-15-(4-Amino-butyl)-18-(3-amino-propyl)-23-fluoro-12-(1H-indol-3-ylmethyl)-4,13-dimethyl-2-thia-10,13,16,19-tetraaza-tricyclo[19.4.0.0*3,8*]pentacosa-1(25),3,5,7,21,23-hexaene-11,14,17-trione]
6 | 0.5 (≈ 0.716 µM) | CCc1ccc2c(c1)CNC(=O)[C@H](Cc1c[nH]c3ccccc13)N(C)C(=O)[C@H](CCCCN)NC(=O)[C@H](CCCN)NCc1ccccc1S2 [Example 66, (12S,15S,18S)-15-(4-Amino-butyl)-18-(3-amino-propyl)-6-ethyl-12-(1H-indol-3-ylmethyl)-13-methyl-2-thia-10,13,16,19-tetraaza-tricyclo[19.4.0.0*3,8*]pentacosa-1(25),3,5,7,21,23-hexaene-11,14,17-trione]
7 | 0.12 (≈ 0.162 µM) | CN1C(=O)[C@H](CCCCN)NC(=O)[C@H](CCCN)NCc2cccnc2Sc2c(Cl)cc(Cl)cc2CNC(=O)[C@@H]1Cc1c[nH]c2ccccc12 [Example 67, (11S,14S,17S)-14-(4-Amino-butyl)-11-(3-amino-propyl)-23,25-dichloro-17-(1H-indol-3-ylmethyl)-16-methyl-2-thia-4,10,13,16,19-pentaaza-tricyclo[19.4.0.0*3,8*]pentacosa-1(25),3,5,7,21,23-hexaene-12,15,18-trione]
8 | 0.5 (≈ 0.647 µM) | CN1C(=O)[C@H](CCCCN)NC(=O)[C@H](CCCN)NCc2cccnc2Sc2c(C(F)(F)F)ccc(Cl)c2CNC(=O)[C@@H]1Cc1c[nH]c2ccccc12 [Example 68, (11S,14S,17S)-14-(4-Amino-butyl)-11-(3-amino-propyl)-22-chloro-17-(1H-indol-3-ylmethyl)-16-methyl-25-trifluoromethyl-2-thia-4,10,13,16,19-pentaaza-tricyclo[19.4.0.0*3,8*]pentacosa-1(25),3,5,7,21,23-hexaene-12,15,18-trione]
9 | 4 (≈ 5.36 µM) | CN1C(=O)[C@H](CCCCN)NC(=O)[C@H](CCCN)NCc2ccccc2Sc2ccc(-c3ccccc3)cc2CNC(=O)[C@@H]1Cc1c[nH]c2ccccc12 [Example 69, (12S,15S,18S)-15-(4-Amino-butyl)-18-(3-amino-propyl)-12-(1H-indol-3-ylmethyl)-13-methyl-6-phenyl-2-thia-10,13,16,19-tetraaza-tricyclo[19.4.0.0*3,8*]pentacosa-1(25),3,5,7,21,23-hexaene-11,14,17-trione]
10 | 2 (≈ 2.75 µM) | CN1C(=O)[C@H](CCCCN)NC(=O)[C@H](CCCN)NCc2ccccc2Sc2ccc(C(C)(C)C)cc2CNC(=O)[C@@H]1Cc1c[nH]c2ccccc12 [Example 70, (12S,15S,18S)-15-(4-Amino-butyl)-18-(3-amino-propyl)-6-tert-butyl-12-(1H-indol-3-ylmethyl)-13-methyl-2-thia-10,13,16,19-tetraaza-tricyclo[19.4.0.0*3,8*]pentacosa-1(25),3,5,7,21,23-hexaene-11,14,17-trione]
11 | 0.5 (≈ 0.7 µM) | COc1ccc2c(c1)CNC(=O)[C@H](Cc1c(C)[nH]c3ccccc13)N(C)C(=O)[C@H](CCCCN)NC(=O)[C@H](CCCN)NCc1ccccc1S2 [Example 71, (12S,15S,18S)-15-(4-Amino-butyl)-18-(3-amino-propyl)-6-methoxy-13-methyl-12-(2-methyl-1H-indol-3-ylmethyl)-2-thia-10,13,16,19-tetraaza-tricyclo[19.4.0.0*3,8*]pentacosa-1(21),3,5,7,22,24-hexaene-11,14,17-trione]
12 | 64 (≈ 89.9 µM) | CC(C)c1ccc2c(c1)CNC(=O)[C@H](Cc1c[nH]c3ccccc13)N(C)C(=O)[C@H](CCCCN)NC(=O)[C@H](CCCN)NCc1ccccc1S2 [Example 72, (12S,15S,18S)-15-(4-Amino-butyl)-18-(3-amino-propyl)-12-(1H-indol-3-ylmethyl)-6-isopropyl-13-methyl-2-thia-10,13,16,19-tetraaza-tricyclo[19.4.0.0*3,8*]pentacosa-1(25),3,5,7,21,23-hexaene-11,14,17-trione]
13 | 0.25 (≈ 0.318 µM) | Cc1[nH]c2ccccc2c1C[C@H]1C(=O)NCc2cc(C(F)(F)F)cc(Cl)c2Sc2ncccc2CN[C@@H](CCCN)C(=O)N[C@@H](CCCCN)C(=O)N1C [Example 74, (11S,14S,17S)-14-(4-Amino-butyl)-11-(3-amino-propyl)-25-chloro-16-methyl-17-(2-methyl-1H-indol-3-ylmethyl)-23-trifluoromethyl-2-thia-4,10,13,16,19-pentaaza-tricyclo[19.4.0.0*3,8*]pentacosa-1(25),3(8),4,6,21,23-hexaene-12,15,18-trione]
14 | 0.12 (≈ 0.152 µM) | Cc1[nH]c2ccccc2c1C[C@H]1C(=O)NCc2c(C(F)(F)F)ccc(Cl)c2Sc2ncccc2CN[C@@H](CCCN)C(=O)N[C@@H](CCCCN)C(=O)N1C [Example 75, (11S,14S,17S)-14-(4-Amino-butyl)-11-(3-amino-propyl)-25-chloro-16-methyl-17-(2-methyl-1H-indol-3-ylmethyl)-22-trifluoromethyl-2-thia-4,10,13,16,19-pentaaza-tricyclo[19.4.0.0*3,8*]pentacosa-1(25),3(8),4,6,21,23-hexaene-12,15,18-trione]
15 | 0.12 (≈ 0.159 µM) | Cc1[nH]c2ccccc2c1C[C@H]1C(=O)NCc2cc(Cl)cc(Cl)c2Sc2ncccc2CN[C@@H](CCCN)C(=O)N[C@@H](CCCCN)C(=O)N1C [Example 76, (11S,14S,17S)-14-(4-Amino-butyl)-11-(3-amino-propyl)-23,25-dichloro-16-methyl-17-(2-methyl-1H-indol-3-ylmethyl)-2-thia-4,10,13,16,19-pentaaza-tricyclo[19.4.0.0*3,8*]pentacosa-1(25),3(8),4,6,21,23-hexaene-12,15,18-trione]
16 | 0.5 (≈ 0.635 µM) | CCN1C(=O)[C@H](CCCCN)NC(=O)[C@H](CCCN)NCc2cccnc2Sc2c(Cl)cc(C(F)(F)F)cc2CNC(=O)[C@@H]1Cc1c[nH]c2ccccc12 [Example 77, (11S,14S,17S)-14-(4-Amino-butyl)-11-(3-amino-propyl)-25-chloro-16-ethyl-17-(1H-indol-3-ylmethyl)-23-trifluoromethyl-2-thia-4,10,13,16,19-pentaaza-tricyclo[19.4.0.0*3,8*]pentacosa-1(25),3(8),4,6,21,23-hexaene-12,15,18-trione]
17 | 0.25 (≈ 0.332 µM) | CCN1C(=O)[C@H](CCCCN)NC(=O)[C@H](CCCN)NCc2cccnc2Sc2c(Cl)ccc(Cl)c2CNC(=O)[C@@H]1Cc1c[nH]c2ccccc12 [Example 78, (11S,14S,17S)-14-(4-Amino-butyl)-11-(3-amino-propyl)-22,25-dichloro-16-ethyl-17-(1H-indol-3-ylmethyl)-2-thia-4,10,13,16,19-pentaaza-tricyclo[19.4.0.0*3,8*]pentacosa-1(25),3(8),4,6,21,23-hexaene-12,15,18-trione]
18 | 0.25 (≈ 0.318 µM) | CCN1C(=O)[C@H](CCCCN)NC(=O)[C@H](CCCN)NCc2cccnc2Sc2c(Cl)ccc(C(F)(F)F)c2CNC(=O)[C@@H]1Cc1c[nH]c2ccccc12 [Example 79, (11S,14S,17S)-14-(4-Amino-butyl)-11-(3-amino-propyl)-25-chloro-16-ethyl-17-(1H-indol-3-ylmethyl)-22-trifluoromethyl-2-thia-4,10,13,16,19-pentaaza-tricyclo[19.4.0.0*3,8*]pentacosa-1(25),3(8),4,6,21,23-hexaene-12,15,18-trione]
19 | 0.12 (≈ 0.159 µM) | CCN1C(=O)[C@H](CCCCN)NC(=O)[C@H](CCCN)NCc2cccnc2Sc2c(Cl)cc(Cl)cc2CNC(=O)[C@@H]1Cc1c[nH]c2ccccc12 [Example 80, (11S,14S,17S)-14-(4-Amino-butyl)-11-(3-amino-propyl)-23,25-dichloro-16-ethyl-17-(1H-indol-3-ylmethyl)-2-thia-4,10,13,16,19-pentaaza-tricyclo[19.4.0.0*3,8*]pentacosa-1(25),3(8),4,6,21,23-hexaene-12,15,18-trione]
